Source: patent US12459974B2, “Bicyclic peptide ligands specific for Nectin-4” (priority 2018, dated 2025)
*1 amine or outer side, *2 acyl side, *3 side chain or, on linkers, in order; H or OH if unused. Where a SMILES comes first, the peptide text is derived from it. Bridges are numbered along the chain shown (N, C = ends). Roman numbers before positions name the chains, in order. [ ]: non-standard residue; d: D form. The star is where a group is joined. ξ: configuration not given here. TATA = O=C(CC[*:1])N1CN(C(=O)CC[*:2])CN(C(=O)CC[*:3])C1; Dolaproine = CO[C@@H]([C@@H]1CCCN1)[C@@H](C)C(=O)O; X1 = CC[C@H](C)C(C(CC(=O)[*:2])OC)N(C)[*:1]; 1Nal = N[C@@H](Cc1cccc2ccccc12)C(=O)O; X3 = O=C(CCCC(=O)[*:2])NCCC(=O)[*:1]; PABC = O=C(OCc1ccc(N[*:1])cc1)[*:2]; Hyp = O=C(O)[C@@H]1C[C@@H](O)CN1; hArg = N=C(N)NCCCC[C@H](N)C(=O)O; Cit = NC(=O)NCCC[C@H](N)C(=O)O; X2 = CC(N*)[C@@H](O)c1ccccc1; ξNMeV = CNC(C(=O)O)C(C)C; ξV = CC(C)C(N)C(=O)O; Sar = CNCC(=O)O

Experiments:
MDA-MB-468 xenograft = assay: Example 9.9: in vivo efficacy of BCY8245 alone or with BCY8234 in MDA-MB-468 xenograft (large tumors) in Balb/c nude mice; set-up: species or system Mus Musculus
CTG-0896 = settings: qw iv
Source text: (§1) To evaluate the antitumor activity of Bicycle Agent in Low Passage Champions TumorGraft Models of Human Breast, Esophageal, and Bladder Cancer in Immunocompromised mice.
(§2) • Species: Mouse • Strain: Athymic Nude-Foxn1nu (Immune-compromised) • Source: Envigo: Indianapolis, Indiana • Gender: Female • Target age at initiation of dosing: At least 6-8 weeks of age • Target weight at initiation of dosing: At least 18 grams • Acclimation period: 3 days Experimental Design
(§3) Pre-study Animals: When sufficient stock animals reach 1.0-1.5 cm^3, tumors will be harvested for re-implantation into pre-study animals. Pre-study animals will be implanted unilaterally on the left flank with tumor fragments harvested from stock animals. Each animal is implanted from a specific passage lot and documented.
(§4) Study Animals: Pre-study tumor volumes are recorded for each experiment beginning seven to ten days after implantation. When tumors reach an average tumor volume of 150-300 mm^3, animals will be matched by tumor volume into treatment or control groups to be used for dosing and dosing initiated on Day 0.

CTG-1106 = settings: qw iv
Source text: as §1, §2, §3, §4

CTG-1171 = settings: qw iv
Source text: as §1, §2, §3, §4

CTG-1771 = settings: qw iv
Source text: as §1, §2, §3, §4

CC[C@H](C)C(C(CC(=O)N1CCC[C@H]1[C@H](OC)[C@@H](C)C(=O)NC(C)[C@@H](O)c1ccccc1)OC)N(C)C(=O)[C@@H](NC(=O)C(C(C)C)N(C)C(=O)OCc1ccc(NC(=O)[C@H](CCCNC(N)=O)NC(=O)C(NC(=O)CCCC(=O)NCCC(=O)N(C)CC(=O)N(C)CC(=O)N(C)CC(=O)N(C)CC(=O)N(C)CC(=O)N(C)CC(=O)N(C)CC(=O)N(C)CC(=O)N(C)CC(=O)N(C)CC(=O)N[C@H]2CSCCC(=O)N3CN4CN(C3)C(=O)CCSC[C@H](NC(=O)[C@@H](CC(=O)O)NC(=O)[C@H](Cc3cccc5ccccc35)NC(=O)[C@@H]3CCCN3C2=O)C(=O)N[C@@H](CCSC)C(=O)N[C@@H](CCCCNC(=N)N)C(=O)N[C@@H](CC(=O)O)C(=O)N[C@@H](Cc2c[nH]c3ccccc23)C(=O)N[C@@H](CO)C(=O)N[C@@H]([C@@H](C)O)C(=O)N2CCC[C@H]2C(=O)N2C[C@H](O)C[C@H]2C(=O)N[C@@H](Cc2c[nH]c3ccccc23)C(=O)N[C@H](C(N)=O)CSCCC4=O)C(C)C)cc1)C(C)C (stereo partly drawn) [BCY8245, MMAE-PABC-Cit-Val-Glutaryl-BCY8234] (I: [Sar][Sar][Sar][Sar][Sar][Sar][Sar][Sar][Sar][Sar]CP[1Nal][dD]CM[hArg]DWSTP[Hyp]WC-NH2 / II: [ξV][Cit][PABC][ξNMeV]V[X1][Dolaproine]-X2; linker I:11-I:15-I:25 via TATA; linker I:N-II:N via X3)
Tumor volume (MDA-MB-468 xenograft; 1 mpk, qw, day 14): 460 mm^3 | Tumor volume (MDA-MB-468 xenograft; 1 mpk, qw, day 16): 433 mm^3 | Tumor volume (MDA-MB-468 xenograft; 1 mpk, qw, day 19): 412 mm^3 | Tumor volume (MDA-MB-468 xenograft; 1 mpk, qw, day 21): 430 mm^3 | Tumor volume (MDA-MB-468 xenograft; 1 mpk, qw, day 23): 421 mm^3 | Tumor volume (MDA-MB-468 xenograft; 1 mpk, qw, day 26): 382 mm^3 | T/C (MDA-MB-468 xenograft; 1 mpk, qw, day 28): 49.7% | TGI (MDA-MB-468 xenograft; 1 mpk, qw, day 28): 126.6% | Tumor volume (MDA-MB-468 xenograft; 1 mpk, qw, day 28): 384 mm^3 | Tumor volume (MDA-MB-468 xenograft; 3 mpk, qw, day 0 after the start of treatment): 464 mm^3 | Tumor volume (MDA-MB-468 xenograft; 3 mpk, qw, day 2): 451 mm^3 | Tumor volume (MDA-MB-468 xenograft; 3 mpk, qw, day 5): 388 mm^3 | Tumor volume (MDA-MB-468 xenograft; 3 mpk, qw, day 7): 333 mm^3 | Tumor volume (MDA-MB-468 xenograft; 3 mpk, qw, day 9): 284 mm^3 | Tumor volume (MDA-MB-468 xenograft; 3 mpk, qw, day 12): 168 mm^3 | Tumor volume (MDA-MB-468 xenograft; 3 mpk, qw, day 14): 129 mm^3 | Tumor volume (MDA-MB-468 xenograft; 3 mpk, qw, day 16): 93 mm^3 | Tumor volume (MDA-MB-468 xenograft; 3 mpk, qw, day 19): 83 mm^3 | Tumor volume (MDA-MB-468 xenograft; 3 mpk, qw, day 21): 71 mm^3 | Tumor volume (MDA-MB-468 xenograft; 3 mpk, qw, day 23): 60 mm^3 | Tumor volume (MDA-MB-468 xenograft; 3 mpk, qw, day 26): 49 mm^3 | T/C (MDA-MB-468 xenograft; 3 mpk, qw, day 28): 6.4% | TGI (MDA-MB-468 xenograft; 3 mpk, qw, day 28): 234.6% | Tumor volume (MDA-MB-468 xenograft; 3 mpk, qw, day 28): 50 mm^3 | Tumor volume (MDA-MB-468 xenograft; Group1, Vehicle, dosed with 5 mpk BCY8245 on PG-D28, day 30): 625 ± 27 mm^3 | Tumor volume (MDA-MB-468 xenograft; Group1, Vehicle, dosed with 5 mpk BCY8245 on PG-D28, day 33): 477 ± 31 mm^3 | Tumor volume (MDA-MB-468 xenograft; Group1, Vehicle, dosed with 5 mpk BCY8245 on PG-D28, day 35): 405 ± 65 mm^3 | Tumor volume (MDA-MB-468 xenograft; Group1, Vehicle, dosed with 5 mpk BCY8245 on PG-D28, day 37): 237 ± 36 mm^3 | Tumor volume (MDA-MB-468 xenograft; Group1, Vehicle, dosed with 5 mpk BCY8245 on PG-D28, day 40): 148 ± 33 mm^3 | Tumor volume (MDA-MB-468 xenograft; Group1, Vehicle, dosed with 5 mpk BCY8245 on PG-D28, day 42): 142 ± 33 mm^3 | Tumor volume (MDA-MB-468 xenograft; Group1, Vehicle, dosed with 5 mpk BCY8245 on PG-D28, day 44): 132 ± 69 mm^3 | Tumor volume (MDA-MB-468 xenograft; Group1, Vehicle, dosed with 5 mpk BCY8245 on PG-D28, day 48): 146 ± 100 mm^3 | Tumor volume (MDA-MB-468 xenograft; Group1, Vehicle, dosed with 5 mpk BCY8245 on PG-D28, day 51): 171 ± 122 mm^3 | Tumor volume (MDA-MB-468 xenograft; Group1, Vehicle, dosed with 5 mpk BCY8245 on PG-D28, day 55): 227 ± 166 mm^3 | Tumor volume (MDA-MB-468 xenograft; Group1, Vehicle, dosed with 5 mpk BCY8245 on PG-D28, day 56): 264 ± 182 mm^3 | Tumor volume (MDA-MB-468 xenograft; Group1, Vehicle, dosed with 5 mpk BCY8245 on PG-D28, day 62): 288 ± 206 mm^3 | Tumor volume (MDA-MB-468 xenograft; Group 2, 1 mpk, change in 5 mpk on PG-D28, day 30): 351 ± 42 mm^3 | Tumor volume (MDA-MB-468 xenograft; Group 2, 1 mpk, change in 5 mpk on PG-D28, day 33): 213 ± 29 mm^3 | Tumor volume (MDA-MB-468 xenograft; Group 2, 1 mpk, change in 5 mpk on PG-D28, day 35): 151 ± 18 mm^3 | Tumor volume (MDA-MB-468 xenograft; Group 2, 1 mpk, change in 5 mpk on PG-D28, day 37): 98 ± 16 mm^3 | Tumor volume (MDA-MB-468 xenograft; Group 2, 1 mpk, change in 5 mpk on PG-D28, day 40): 89 ± 17 mm^3 | Tumor volume (MDA-MB-468 xenograft; Group 2, 1 mpk, change in 5 mpk on PG-D28, day 42): 95 ± 16 mm^3 | Tumor volume (MDA-MB-468 xenograft; Group 2, 1 mpk, change in 5 mpk on PG-D28, day 44): 103 ± 20 mm^3 | Tumor volume (MDA-MB-468 xenograft; Group 2, 1 mpk, change in 5 mpk on PG-D28, day 48): 106 ± 21 mm^3 | Tumor volume (MDA-MB-468 xenograft; Group 2, 1 mpk, change in 5 mpk on PG-D28, day 51): 103 ± 21 mm^3 | Tumor volume (MDA-MB-468 xenograft; Group 2, 1 mpk, change in 5 mpk on PG-D28, day 55): 104 ± 20 mm^3 | Tumor volume (MDA-MB-468 xenograft; Group 2, 1 mpk, change in 5 mpk on PG-D28, day 56): 120 ± 23 mm^3 | Tumor volume (MDA-MB-468 xenograft; Group3, 3 mpk, qw, day 30): 44 ± 18 mm^3 | Tumor volume (MDA-MB-468 xenograft; Group3, 3 mpk, qw, day 33): 43 ± 20 mm^3 | Tumor volume (MDA-MB-468 xenograft; Group3, 3 mpk, qw, day 35): 44 ± 20 mm^3 | Tumor volume (MDA-MB-468 xenograft; Group3, 3 mpk, qw, day 37): 50 ± 24 mm^3 | Tumor volume (MDA-MB-468 xenograft; Group3, 3 mpk, qw, day 40): 55 ± 29 mm^3 | Tumor volume (MDA-MB-468 xenograft; Group3, 3 mpk, qw, day 42): 66 ± 32 mm^3 | Tumor volume (MDA-MB-468 xenograft; Group3, 3 mpk, qw, day 44): 71 ± 33 mm^3 | Tumor volume (MDA-MB-468 xenograft; Group3, 3 mpk, qw, day 48): 80 ± 36 mm^3 | Tumor volume (MDA-MB-468 xenograft; Group3, 3 mpk, qw, day 51): 91 ± 43 mm^3 | Tumor volume (MDA-MB-468 xenograft; Group3, 3 mpk, qw, day 55): 108 ± 53 mm^3 | Tumor volume (MDA-MB-468 xenograft; Group3, 3 mpk, qw, day 56): 125 ± 58 mm^3 | tumor response (in words) (MDA-MB-468 xenograft; former vehicle group and group 2, 5 mg/kg on PG-D28, following 3 weeks): effective tumor regression | efficacy (in words) (CTG-0896): excellent efficacy evoking tumor regression | efficacy (in words) (CTG-1106): excellent efficacy evoking tumor regression | efficacy (in words) (CTG-1171): excellent efficacy evoking tumor regression | efficacy (in words) (CTG-1771): excellent efficacy evoking tumor regression
